Numbers after ± are expanded uncertainties.
Conditions: Liquid; for thermal conductivity: Hot wire method; for viscosity: Capillary tube (Ostwald / Ubbelohde) method; for mass density: Pycnometric method

CCCCCCCCCC(=O)O [decanoic acid]
101.33 kPa
Conditions	mass density [kg/m3]	thermal conductivity [W/m/K]	viscosity [mPa·s]
308 K	–	0.154 ± 0.003	–
322.1 K	878 ± 2	–	4.75 ± 0.05
327.4 K	–	0.15 ± 0.003	–
332.1 K	871 ± 2	–	3.8 ± 0.05
348.8 K	–	0.146 ± 0.003	–
352.1 K	855.3 ± 2	–	2.55 ± 0.04
368.3 K	843.1 ± 2.1	–	1.94 ± 0.04
373.9 K	–	0.14 ± 0.003	–
388.3 K	827.3 ± 2.1	–	1.45 ± 0.04
398.3 K	–	0.135 ± 0.003	–
408.2 K	812.2 ± 2.1	–	1.1 ± 0.04
421.9 K	–	0.13 ± 0.003	–
427.2 K	797.2 ± 2.1	–	0.88 ± 0.04
428.2 K	796.4 ± 2.1	–	0.87 ± 0.04
442.2 K	784.9 ± 2.1	–	0.75 ± 0.04
447.3 K	–	0.125 ± 0.003	–
457.2 K	772.9 ± 2.1	–	0.64 ± 0.04
472.2 K	761.9 ± 2.1	–	0.56 ± 0.04
473.4 K	–	0.119 ± 0.003	–

CCCCCCCCCCCC(=O)O [dodecanoic acid]
101.33 kPa
Conditions	mass density [kg/m3]	thermal conductivity [W/m/K]	viscosity [mPa·s]
322.1 K	872.4 ± 2	–	7.21 ± 0.07
324.6 K	–	0.156 ± 0.003	–
332.1 K	864.6 ± 2	–	5.62 ± 0.06
348.7 K	–	0.151 ± 0.003	–
352.1 K	849.9 ± 2	–	3.7 ± 0.05
368.2 K	838.9 ± 2.1	–	2.69 ± 0.04
373.8 K	–	0.145 ± 0.003	–
388.4 K	824.1 ± 2.1	–	1.97 ± 0.04
398.4 K	–	0.14 ± 0.003	–
408.1 K	809.3 ± 2.1	–	1.47 ± 0.04
422 K	–	0.134 ± 0.003	–
428.1 K	794.4 ± 2.1	–	1.11 ± 0.04
442.2 K	783.5 ± 2.1	–	0.95 ± 0.04
447.5 K	–	0.129 ± 0.003	–
457.2 K	770.2 ± 2.1	–	0.8 ± 0.04
467.2 K	762 ± 2.1	–	0.72 ± 0.04
472.7 K	–	0.123 ± 0.003	–

CCCCCCC(=O)O [heptanoic acid]
101.33 kPa
Conditions	mass density [kg/m3]	thermal conductivity [W/m/K]	viscosity [mPa·s]
290.3 K	920.6 ± 2	–	4.63 ± 0.05
296 K	–	0.144 ± 0.003	–
308 K	905.7 ± 2	–	3.06 ± 0.05
314.4 K	–	0.14 ± 0.003	–
323.1 K	893 ± 2	–	2.3 ± 0.04
332.4 K	–	0.137 ± 0.003	–
338.1 K	880.4 ± 2	–	1.74 ± 0.04
352.6 K	–	0.133 ± 0.003	–
353.1 K	867.8 ± 2.1	–	1.39 ± 0.04
367.1 K	855.4 ± 2.1	–	1.13 ± 0.04
372.2 K	–	0.13 ± 0.003	–
382 K	–	0.127 ± 0.003	–
383.2 K	842.3 ± 2.1	–	0.94 ± 0.04
391.9 K	–	0.124 ± 0.003	–
397.9 K	829.4 ± 2.1	–	0.79 ± 0.04
412.4 K	–	0.121 ± 0.003	–
412.9 K	816.6 ± 2.1	–	0.68 ± 0.04
427.7 K	803.4 ± 2.1	–	0.59 ± 0.04
441.7 K	–	0.116 ± 0.003	–
471.4 K	–	0.11 ± 0.003	–

CCCCCC(=O)O [hexanoic acid]
101.33 kPa
Conditions	mass density [kg/m3]	thermal conductivity [W/m/K]	viscosity [mPa·s]
294.5 K	926 ± 2	–	–
294.6 K	–	–	3.07 ± 0.05
296.9 K	–	0.143 ± 0.003	–
312.1 K	910.5 ± 2	–	2.15 ± 0.04
325.7 K	–	0.138 ± 0.003	–
332.1 K	893.1 ± 2	–	1.52 ± 0.04
347.4 K	–	0.134 ± 0.003	–
352.1 K	875.8 ± 2.1	–	1.14 ± 0.04
368.1 K	861.7 ± 2.1	–	0.94 ± 0.04
374.7 K	–	0.128 ± 0.003	–
388.4 K	843.5 ± 2.1	–	0.73 ± 0.04
398.1 K	–	0.124 ± 0.003	–
408.3 K	825.3 ± 2.1	–	0.6 ± 0.04
422.3 K	–	0.12 ± 0.003	–
428.3 K	806.5 ± 2.1	–	0.49 ± 0.04
445.6 K	–	0.116 ± 0.003	–
471.2 K	–	0.113 ± 0.003	–

CCCCCCCCC(=O)O [nonanoic acid]
101.33 kPa
Conditions	mass density [kg/m3]	thermal conductivity [W/m/K]	viscosity [mPa·s]
290.3 K	906 ± 2	–	–
292.3 K	–	–	8.2 ± 0.07
296.3 K	–	0.15 ± 0.003	–
308 K	893.8 ± 2	–	5.25 ± 0.06
322.6 K	–	0.144 ± 0.003	–
323.1 K	881.9 ± 2	–	3.66 ± 0.05
338.1 K	870.1 ± 2	–	2.7 ± 0.05
352.9 K	–	0.139 ± 0.003	–
353.1 K	858.4 ± 2	–	2.07 ± 0.04
368 K	846.7 ± 2.1	–	1.63 ± 0.04
381.3 K	–	0.133 ± 0.003	–
383.1 K	834.1 ± 2.1	–	–
383.3 K	–	–	1.31 ± 0.04
398.1 K	822.3 ± 2.1	–	1.08 ± 0.04
412.2 K	–	0.126 ± 0.003	–
413 K	810.3 ± 2.1	–	0.9 ± 0.04
427.9 K	798 ± 2.1	–	0.76 ± 0.04
441.4 K	–	0.121 ± 0.003	–
471.6 K	–	0.115 ± 0.003	–

CCCCCCCC(=O)O [octanoic acid]
101.33 kPa
Conditions	mass density [kg/m3]	thermal conductivity [W/m/K]	viscosity [mPa·s]
290.3 K	910.3 ± 2	–	–
293.3 K	–	–	5.86 ± 0.06
297.2 K	–	0.147 ± 0.003	–
308 K	898.2 ± 2	–	3.98 ± 0.05
322.3 K	–	0.142 ± 0.003	–
323.1 K	885.9 ± 2	–	2.88 ± 0.05
338.1 K	873.8 ± 2	–	2.17 ± 0.04
352.8 K	–	0.136 ± 0.003	–
353.1 K	861.8 ± 2.1	–	1.69 ± 0.04
367.8 K	849.7 ± 2.1	–	1.36 ± 0.04
383.1 K	837.2 ± 2.1	–	1.11 ± 0.04
387.6 K	–	0.13 ± 0.003	–
398.1 K	824.6 ± 2.1	–	0.92 ± 0.04
411.3 K	–	0.124 ± 0.003	–
412.9 K	812.3 ± 2.1	–	0.78 ± 0.04
427.7 K	799.2 ± 2.1	–	0.67 ± 0.04
442 K	–	0.118 ± 0.003	–
471.7 K	–	0.112 ± 0.003	–

CCCCC(=O)O [pentanoic acid]
Conditions	mass density [kg/m3]	thermal conductivity [W/m/K]	viscosity [mPa·s]
293.4 K	939.7 ± 2	–	2.19 ± 0.04
296.1 K	–	0.141 ± 0.003	–
312.1 K	922.3 ± 2	–	1.56 ± 0.04
324.1 K	–	0.136 ± 0.003	–
332.1 K	904.1 ± 2	–	1.17 ± 0.04
348.6 K	–	0.131 ± 0.003	–
352.2 K	885.4 ± 2.1	–	0.89 ± 0.04
368.1 K	870.6 ± 2.1	–	0.75 ± 0.04
374 K	–	0.126 ± 0.003	–
388.4 K	851 ± 2.1	–	0.6 ± 0.04
398 K	–	0.122 ± 0.003	–
408.3 K	831.9 ± 2.1	–	0.5 ± 0.04
422.4 K	–	0.118 ± 0.003	–
428.2 K	812.1 ± 2.1	–	0.41 ± 0.04
446.4 K	–	0.115 ± 0.003	–
471.3 K	–	0.111 ± 0.003	–

CCCCCCCCCCCCCC(=O)O [tetradecanoic acid]
101.33 kPa
Conditions	mass density [kg/m3]	thermal conductivity [W/m/K]	viscosity [mPa·s]
332.1 K	861.3 ± 2	–	7.77 ± 0.07
334.4 K	–	0.158 ± 0.003	–
349 K	–	0.155 ± 0.003	–
352.1 K	846.9 ± 2	–	4.88 ± 0.05
368.2 K	835.6 ± 2.1	–	3.53 ± 0.05
374.1 K	–	0.149 ± 0.003	–
388.2 K	821.4 ± 2.1	–	2.48 ± 0.04
397.7 K	–	0.144 ± 0.003	–
408.2 K	806.7 ± 2.1	–	1.79 ± 0.04
422.3 K	–	0.139 ± 0.003	–
427.9 K	791.7 ± 2.1	–	1.35 ± 0.04
442.2 K	–	–	1.13 ± 0.04
443.2 K	780.9 ± 2.1	–	–
447.3 K	–	0.133 ± 0.003	–
457.2 K	–	–	0.95 ± 0.04
458.2 K	769.3 ± 2.1	–	–
471.9 K	–	0.127 ± 0.003	–
472.2 K	–	–	0.81 ± 0.04
473.2 K	758 ± 2.1	–	–

From the NIST ThermoML archive (doi:10.1021/acs.jced.5b00971)
